Laboratory results: ChEMBL document CHEMBL3714716, “Modulators of the relaxin receptor 1” (2015)
Activity calls are given as the source filed them. No cut-off for these calls is given here.

Legend:
[1] = biological target: T1, Relaxin receptor 1 (Homo sapiens) (UniProt Q9HBX9); assay: Agonist activity at RXFP1 receptor (unknown origin) expressed in HEK293 cells assessed as stimulation of cAMP production incubated for 30 mins by TR-FRET based HTRF assay relative to forskolin; assay type: functional, cell-based
T1 sequence (whole entry): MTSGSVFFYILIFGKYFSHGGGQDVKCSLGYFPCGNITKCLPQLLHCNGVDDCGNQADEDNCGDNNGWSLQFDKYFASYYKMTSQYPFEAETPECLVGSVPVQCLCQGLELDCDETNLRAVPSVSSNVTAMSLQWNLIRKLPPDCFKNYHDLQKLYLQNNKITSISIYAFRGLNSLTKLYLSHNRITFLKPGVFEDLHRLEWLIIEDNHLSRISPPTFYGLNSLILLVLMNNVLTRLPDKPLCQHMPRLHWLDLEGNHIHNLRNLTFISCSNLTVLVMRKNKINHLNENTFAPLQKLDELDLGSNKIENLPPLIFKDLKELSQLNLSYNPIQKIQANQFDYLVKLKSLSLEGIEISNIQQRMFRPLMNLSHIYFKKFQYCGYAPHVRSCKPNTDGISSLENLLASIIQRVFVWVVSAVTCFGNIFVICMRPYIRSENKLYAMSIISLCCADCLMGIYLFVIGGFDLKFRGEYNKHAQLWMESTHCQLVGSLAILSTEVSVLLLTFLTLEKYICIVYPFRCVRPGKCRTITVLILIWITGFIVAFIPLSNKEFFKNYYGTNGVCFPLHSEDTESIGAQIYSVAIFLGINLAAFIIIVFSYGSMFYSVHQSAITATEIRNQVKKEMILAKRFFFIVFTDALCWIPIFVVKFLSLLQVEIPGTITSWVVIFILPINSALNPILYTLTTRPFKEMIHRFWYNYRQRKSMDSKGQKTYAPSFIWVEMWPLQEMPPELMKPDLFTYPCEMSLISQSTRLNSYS

Relaxin receptor 1 = biological target: T2, Relaxin receptor 1 (Homo sapiens, UniProt Q9HBX9); assay: Agonist activity at RXFP1 receptor (unknown origin) expressed in HEK293 cells assessed as stimulation of cAMP production incubated for 30 mins by TR-FRET based HTRF assay; assay type: functional, cell-based
T2 sequence (Q9HBX9 whole entry): T1 sequence (whole entry)

Row | SMILES | %max [1] | AC50 (Relaxin receptor 1; read-out: AC50) | AC50 (Relaxin receptor 1; hek293)
1 | O=C(Nc1cccc(C(F)(F)F)c1)c1ccccc1NC(=O)c1ccccc1Oc1ccccc1 | 97% | 0.747 µM | 
2 | O=C(Nc1cccc([N+](=O)[O-])c1)c1ccccc1NC(=O)C1CCCCC1 | 93% | 5.93 µM | 
3 | COc1cccc(C(=O)Nc2ccccc2C(=O)Nc2cccc(C(F)(F)F)c2)c1 | 94% | 1.88 µM | 
4 | Cc1ccc(C(=O)Nc2ccccc2C(=O)Nc2cccc(C(F)(F)F)c2)cc1 | 85% | 4.71 µM | 
5 | Cc1ccc(NC(=O)c2ccccc2NC(=O)C2CCCCC2)cc1 | 32% | 187 µM | 
6 | O=C(Nc1cccc(C(F)(F)F)c1)c1ccccc1NC(=O)c1ccccc1C(F)(F)F | 70% | 7.47 µM | 
7 | CCOc1ccccc1C(=O)Nc1ccccc1C(=O)Nc1cccc(SC(F)(F)F)c1 | 98% | 0.666 µM | 
8 | O=C(Nc1ccccc1C(=O)Nc1cccc(C(F)(F)F)c1)c1ccc2ccccc2c1 | 85% | 14.9 µM | 
9 | O=C(Nc1cccc(-c2ccc(C(F)(F)F)cc2)c1)c1ccccc1NC(=O)C1CCCCC1 | inactive |  | Not Active
10 | CC(C)Oc1ccccc1C(=O)Nc1ccccc1C(=O)Nc1cccc(C(F)(F)F)c1 | 99% | 0.471 µM | 
11 | COc1ccccc1-c1ccccc1C(=O)Nc1cccc(C(F)(F)F)c1 | inactive |  | Not Active
12 | O=C(Nc1cccc(C(F)(F)F)c1)c1ccccc1NC(=O)C12CC3CC(CC(C3)C1)C2 | 87% | 4.71 µM | 
13 | O=C(Nc1cccc(C(F)(F)F)c1)c1ccccc1NC(=O)c1ccccc1OCCN1CCCCC1 | 99% | 2.65 µM | 
14 | O=C(Nc1cccc(C(F)(F)F)c1)c1ccccc1NCc1cccc(C(F)(F)F)c1 | 71% | 47.1 µM | 
15 | N#Cc1cccc(C(=O)Nc2ccccc2C(=O)Nc2cccc(C(F)(F)F)c2)c1 | 96% | 2.1 µM | 
16 | O=C(Nc1ccccc1C(=O)Nc1cccc(S(=O)(=O)C(F)(F)F)c1)c1ccccc1I | 85% | 4.2 µM | 
17 | CCOc1ccccc1C(=O)Nc1ccccc1C(=O)Nc1cccc(-c2nnn[nH]2)c1 | inactive |  | Not Active
18 | O=C(Nc1cccc(C(F)(F)F)c1)c1cccc(NC(=O)C2CCCCC2)c1 | inactive |  | Not Active
19 | O=C(Nc1ccc(F)cc1)c1ccccc1NC(=O)C1CCCCC1 | 74% | 37.4 µM | 
20 | O=C(Nc1cccc(C(F)(F)F)c1)c1ccccc1NC(=O)c1ccccc1OC(F)(F)F | 96% | 1.18 µM | 

Row | SMILES | %max [1] | AC50 (Relaxin receptor 1; read-out: AC50) | AC50 (Relaxin receptor 1; hek293)
21 | O=C(Nc1cccc(C(F)(F)F)c1)c1ccccc1NC(=O)C1CCCC1 | 88% | 2.36 µM | 
22 | O=C(Nc1ccccc1C(=O)Nc1cccc(C(F)(F)F)c1)c1ccc(Br)cc1 | 93% | 4.2 µM | 
23 | O=C(Nc1ccccc1C(=O)Nc1cccc(C(F)(F)F)c1)c1cccc([N+](=O)[O-])c1 | 84% | 1.06 µM | 
24 | CCOc1ccccc1C(=O)Nc1ncccc1C(=O)Nc1cccc(S(=O)(=O)C(F)(F)F)c1 | 98% | 1.67 µM | 
25 | O=C(Nc1ccccc1C(=O)Nc1cccc(C(F)(F)F)c1)c1cccc(Br)c1 | 97% | 1.67 µM | 
26 | CCOc1ccccc1C(=O)Nc1ccccc1C(=O)Nc1cccc(C(C)(C)C)c1 | 93% | 1.06 µM | 
27 | CC(C)c1cccc(NC(=O)c2ccccc2NC(=O)C2CCCCC2)c1 | 66% | 5.29 µM | 
28 | O=C(Nc1cccc(C(F)(F)F)c1)c1ccc(NC(=O)C2CCCCC2)cc1 | inactive |  | Not Active
29 | CC(C)(C)OC(=O)Nc1ccccc1C(=O)Nc1cccc(C(F)(F)F)c1 | 79% | 5.29 µM | 
30 | Cc1ccc(CNC(=O)c2ccccc2NC(=O)C2CCCCC2)o1 | 31% | 149 µM | 
31 | CCOc1ccccc1C(=O)Nc1cccnc1C(=O)Nc1cccc(S(=O)(=O)C(F)(F)F)c1 | 73% | 4.71 µM | 
32 | O=C(Nc1ccc2c(c1)OCO2)c1ccccc1NC(=O)C1CCCCC1 | 58% | 74.7 µM | 
33 | COc1ccccc1C(=O)Nc1ccccc1C(=O)Nc1cccc(SC)c1 | 94% | 1.33 µM | 
34 | CCOc1ccccc1C(=O)Nc1ccccc1C(=O)Nc1ccncc1 | 64% | 74.7 µM | 
35 | COc1ccccc1C(=O)N(C)c1ccccc1C(=O)N(C)c1cccc(C(F)(F)F)c1 | inactive |  | Not Active
36 | CCOc1ccccc1C(=O)Nc1cnccc1C(=O)Nc1cccc(S(=O)(=O)C(F)(F)F)c1 | 99% | 2.97 µM | 
37 | CCOc1ccccc1-c1nc2ccccc2c(=O)n1-c1cccc(-c2nnn[nH]2)c1 | 36% | 149 µM | 
38 | COc1ccc(NC(=O)c2ccccc2NC(=O)C2CCCCC2)cc1 | inactive |  | Not Active
39 | O=C(Nc1cccc(C(F)(F)F)c1)c1ccccc1OCCN1CCCCC1 | inactive |  | Not Active
40 | O=C(Nc1cccc(Br)c1)c1ccccc1NC(=O)C1CCCCC1 | 91% | 2.65 µM | 

Row | SMILES | %max [1] | AC50 (Relaxin receptor 1; read-out: AC50) | AC50 (Relaxin receptor 1; hek293)
41 | O=C(Nc1ccc2c(c1)CCC2)c1ccccc1NC(=O)C1CCCCC1 | 46% | 9.4 µM | 
42 | O=C(Nc1cccc(C(F)(F)F)c1)c1ccccc1NC(=O)c1ccccc1[N+](=O)[O-] | 30% | 188 µM | 
43 | O=C(Cc1ccccc1)Nc1ccccc1C(=O)Nc1cccc(C(F)(F)F)c1 | 86% | 8.38 µM | 
44 | O=C(Nc1cccc(C(F)(F)F)c1)c1ccccc1-c1ccccc1 | inactive |  | Not Active
45 | O=C(Nc1ccccc1C(=O)Nc1cccc(C(F)(F)F)c1)c1ccc([N+](=O)[O-])cc1 | 96% | 1.49 µM | 
46 | COc1ccccc1C(=O)Nc1ccccc1C(=O)N(C)c1cccc(C(F)(F)F)c1 | 77% | 29.7 µM | 
47 | O=C(Nc1cccc(C(F)(F)F)c1)c1ccccc1NCCc1ccccc1 | 83% | 9.4 µM | 
48 | CN(C)CCCOc1ccccc1C(=O)Nc1ccccc1C(=O)Nc1cccc(C(F)(F)F)c1 | 66% | 59.3 µM | 
49 | O=C(Nc1ccccc1C(=O)Nc1cccc(C(F)(F)F)c1)c1cccc(-c2ccccc2)c1 | 89% | 5.29 µM | 
50 | COc1ccccc1C(=O)Nc1ccccc1C(=O)Nc1cccc(S(C)(=O)=O)c1 | 95% | 6.66 µM | 
51 | O=C(Nc1ccccc1[N+](=O)[O-])c1ccccc1NC(=O)C1CCCCC1 | inactive |  | Not Active
52 | CN(C)CCCOc1ccccc1C(=O)Nc1cccc(C(F)(F)F)c1 | inactive |  | Not Active
53 | COc1ccccc1C(=O)Nc1ccc(C(=O)Nc2cccc(C(F)(F)F)c2)cc1 | inactive |  | Not Active
54 | CCOc1ccccc1C(=O)NCCC(=O)Nc1cccc(S(=O)(=O)C(F)(F)F)c1 | 90% | 4.71 µM | 
55 | CS(=O)(=O)c1cccc(C(=O)Nc2ccccc2C(=O)Nc2cccc(C(F)(F)F)c2)c1 | 77% | 9.4 µM | 
56 | O=C(Nc1cccc(C(F)(F)F)c1)c1ccccc1NC(=O)c1ccccc1OCCN1CCOCC1 | 98% | 4.71 µM | 
57 | CC1CCC(C(=O)Nc2ccccc2C(=O)Nc2cccc(C(F)(F)F)c2)CC1 (stereo unspecified) | 92% | 2.36 µM | 
58 | O=C(Nc1cccc(C(F)(F)F)c1)c1ccccc1-c1ccccc1OCc1ccccc1 | inactive |  | Not Active
